Laboratory results as given in PMC9822270, “Modulation Effect on Tubulin Polymerization, Cytotoxicity and Antioxidant Activity of 1H-Benzimidazole-2-Yl Hydrazones” (Molecules, 2022).
Several values for one entry are separate records, joined by “and”; a condition that tells them apart may be missing. Equal values may be shown once. Entries after “also recorded” stand apart in the source; their conditions may differ. Read-outs that look alike come from different tables or passages of the source.

Assays:
[1] = target: T1, porcine brain tubulin (Sus scrofa, UniProt P02550+P02554); assay: In vitro tubulin polymerization assay (turbidity at 340 nm); format: biochemical; conditions: 10 µM compound; for Initial Rate of the Exponential Phase, Signal Response / Lag Time: 37 °C, 90 min, turbidity 340 nm
T1 construct: The standard reaction mixture contains 95 μL of 4 mg.mL^−1 porcine brain tubulin; purchased Cytoskeleton, USA BK004P; host or cells: porcine brain (tissue-purified)
T1 sequence (P02550 whole entry): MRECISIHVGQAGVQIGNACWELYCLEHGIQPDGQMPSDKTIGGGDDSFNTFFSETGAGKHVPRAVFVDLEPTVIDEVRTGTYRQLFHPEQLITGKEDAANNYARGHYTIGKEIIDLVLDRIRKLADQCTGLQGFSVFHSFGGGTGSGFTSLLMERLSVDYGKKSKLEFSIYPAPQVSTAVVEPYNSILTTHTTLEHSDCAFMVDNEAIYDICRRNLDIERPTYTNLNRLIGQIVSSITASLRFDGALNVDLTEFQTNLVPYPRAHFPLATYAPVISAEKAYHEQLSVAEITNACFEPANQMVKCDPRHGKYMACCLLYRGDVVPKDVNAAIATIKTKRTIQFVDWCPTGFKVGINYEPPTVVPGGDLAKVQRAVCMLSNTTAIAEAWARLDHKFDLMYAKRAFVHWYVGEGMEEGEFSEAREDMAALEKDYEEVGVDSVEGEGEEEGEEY
T1 sequence (P02554 whole entry): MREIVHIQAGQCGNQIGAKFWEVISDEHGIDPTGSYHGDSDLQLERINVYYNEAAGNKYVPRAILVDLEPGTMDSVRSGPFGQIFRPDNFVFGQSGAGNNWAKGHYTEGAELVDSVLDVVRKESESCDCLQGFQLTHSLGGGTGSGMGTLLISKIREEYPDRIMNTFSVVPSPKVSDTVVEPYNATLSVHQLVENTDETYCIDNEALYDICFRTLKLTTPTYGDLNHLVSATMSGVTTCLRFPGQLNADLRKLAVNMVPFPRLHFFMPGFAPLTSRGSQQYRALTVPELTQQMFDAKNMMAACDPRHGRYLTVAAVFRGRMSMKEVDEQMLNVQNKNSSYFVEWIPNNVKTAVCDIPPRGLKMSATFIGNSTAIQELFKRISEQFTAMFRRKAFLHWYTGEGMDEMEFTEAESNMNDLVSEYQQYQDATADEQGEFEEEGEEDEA
Method: The ability of the compounds to modulate the polymerization of tubulin was evaluated in vitro on purified porcine tubulin by spectrophotometric monitoring at 340 nm and compared to those of nocodazole and paclitaxel as reference compounds. Nocodazole which inhibits the assembly of tubulin was used as a positive control, and paclitaxel which is a stabilizing agent of tubulin polymerization was used as a negative control. Tubulin polymerization was determined with 10 µM of the reference drugs and compounds 1a–l for 90 min.
Figure 3 Porcine brain tubulin (final […]) in presence of PB-GTP buffer, 10 µM paclitaxel, 10 µM nocodazole and 10 µM of the assayed compounds. Reaction was conducted in thermostated spectrophotometric chamber at 37 °C for 90 min. Turbidity was measured at 340 nm every 30 s.
The effect of the studied compounds on the polymerization of purified porcine tubulin was monitored using a commercial assay kit (cat. number BK004P), purchased from Cytoskeleton, USA. Stock solutions of porcine brain tubulin solutions (4 mg.mL^−1) were prepared immediately prior to use in general tubulin buffer (80 mM piperazine-N,N′-bis(2-ethanesulfonic acid, PIPES) pH 6.9, 2 mM MgCl2 and 0.5 mM (ethylene glycol-bis(β-aminoethyl ether)-N,N,N′,N′-tetraacetic acid, EGTA) containing 1 mM guanosine triphosphate (GTP) (G-PEM buffer). Stock solutions of Paclitaxel (100 µM), Noconazole (100 µM) or tested samples (100 µM) in G-PEM buffer containing 5% DMSO were prepared.
The standard reaction mixture contains 95 μL of 4 mg.mL^−1 porcine brain tubulin and 5 μL of standards, test samples or G-PEM buffer only (control). Then, the microplate with loaded reaction mixtures was incubated for 90 min. at 37 °C in a thermostated spectrophotometer chamber. The turbidity of the mixtures was measured at 340 nm every 30 s. The experiment was performed on SpectroStar Nano (BMG Labtech, Aylesbury, UK) equipped with software for kinetic measurements.

[2] = tested on: MCF-7 (ER-positive breast adenocarcinoma); assay: MTT cytotoxicity assay, MCF-7; format: cell-based, human; conditions: for IC50: Homo sapiens, read-out: IC50 MCF-7
From the text: (§1) A standard colorimetric MTT assay was used to evaluate the anticancer activity of the newly synthesized 1H-benzimidazol-2-yl hydrazone derivatives against human malignant cell lines of different histological origin, namely MCF-7 (ER-positive breast adenocarcinoma) and AR-230 (BCR-ABL positive chronic myeloid leukemia), using podophyllotoxin as a reference drug. For each compound, the half-inhibitory concentrations (IC50) were estimated based on the derived “dose–response” relationships following 72h exposure time. In addition, their cytotoxicity was measured against normal fibroblast cells 3T3 (mouse embryo fibroblasts) and CCL-1 (murine fibroblasts) and respective cancer selectivity indices (CSI) were calculated (Table 2).
(§2) The cell lines MCF-7, AR-231 and CCL-1 were obtained from the German Collection of Microorganisms and Cell Cultures. Cells were kept in a controlled environment—RPMI-1640 medium supplemented with 10% fetal bovine serum (FBS) and 2mM L-glutamine, at 37 °C in an incubator with 5% CO2 humidified atmosphere.
(§3) MTT-based colorimetric assay was used for evaluating the cell viability. The method is based on the reduction of the yellow tetrazolium compound MTT to water-insoluble, violet formazan crystals. MCF-7, AR-231, and CCL-1 cells were seeded in 96-well, flatbottomed microplates (100 µL/well) at a density of 3 × 10^5 cells per mL and allowed to grow for 24 h prior the exposure to the studied compounds. Cells were exposed to the tested agents for 72 h. After the exposure period MTT solution (10 mg.mL^−1) aliquots (100 µL/well) were added to each well. The plates were further incubated for 4 h at 37 °C and the MTT-formazan crystals formed were dissolved through addition of […] of 5% HCOOH in 2-propanol. The absorption was measured at 580 nm using a microplate reader (Labexim LMR-1).

[3] = tested on: AR-230 (BCR-ABL positive chronic myeloid leukemia); assay: MTT cytotoxicity assay, AR-230; format: cell-based, human; conditions: for IC50: Homo sapiens, read-out: IC50 AR-230
From the text: as §1, §2, §3

[4] = tested on: 3T3 (mouse embryo fibroblasts); assay: Cytotoxicity against normal 3T3 cells; format: cell-based; conditions: normal mouse embryo fibroblast cell line; ± SD
From the text: as §1
Evaluation of the cytotoxic activity of some of the compounds was performed on 3T3 (mouse embryo fibroblasts) cell line. The cells were cultivated in Dulbecco′s Modified Eagle′s Medium (DMEM), containing 10% FBS, with supplements L-glutamine, sodium pyruvate, antibiotic and non-essential amino acids, and allowed to adhere overnight at 37 °C in an incubator with 5% CO2 humidified atmosphere. At the end of the incubation, the cells were treated with different concentrations of the compounds in a final volume of 100 μL/well in triplicate wells for each treatment for 24 h at 37 °C in a CO2 incubator. All studies were repeated at least twice. Control cells were grown in DMEM containing 10% FBS and allowed to stabilize overnight at 37 °C in a CO2 incubator and left without treatment.

[5] = tested on: CCL-1 (murine fibroblasts); assay: MTT cytotoxicity against normal CCL-1 cells; format: cell-based; conditions: Mus musculus, 72 h, read-out: IC50 CCL-1
From the text: as §1, §2, §3

[6] = normal murine fibroblast cell line, MTT, ± SD

SMILES	Initial Rate of the Exponential Phase, Signal Response [1] [a.u.s^−1 × 10^−6]	Lag Time [1]	lag time of tubulin polymerization [1]	IC50 ([2]; MCF7, MTT, 72 h exposure, ± SD) [µM]	CSI MCF-7 (cancer selectivity index) ([2]; IC50(3T3)/IC50(MCF-7))	IC50 ([3]; MTT, 72 h exposure, ± SD) [µM]	CSI AR230 (cancer selectivity index) ([3]; IC50(3T3)/IC50(AR-230))	IC50 [4] [µM]	IC50 ([2]; MCF7, 72 h) [µM]	CSI MCF-7 (cancer selectivity index) ([2]; IC50(CCL-1)/IC50(MCF-7))	IC50 ([3]; 72 h) [µM]	CSI AR230 (cancer selectivity index) ([3]; IC50(CCL-1)/IC50(AR-230))	IC50 ([5]; Fibroblast) [µM]	IC50 [5, 6] [µM]
COc1cc(/C=N/Nc2nc3ccccc3[nH]2)cc(OC)c1OC [Compound 1i]	20.6	988 s	–	1.2 ± 0.2	≈59.1	1.7 ± 0.3	≈41.7	71 ± 2.4	–	–	–	–	–	–
COc1cc([C@@H]2c3cc4c(cc3[C@H](O)[C@H]3COC(=O)[C@H]23)OCO4)cc(OC)c1OC [Podophyllotoxin, reference compound]	–	–	–	–	–	–	–	–	0.3 ± 0.06	≈9	0.47 ± 0.09	≈5.7	2.7	–
COc1ccc(/C=N/Nc2nc3ccccc3[nH]2)c(O)c1 [Compound 1k]	9.7	1295 s	more than 20 min	1.5 ± 0.3	–	0.9 ± 0.1	–	–	–	≈67.8	–	≈113	–	102 ± 7.3
Oc1cccc(/C=N/Nc2nc3ccccc3[nH]2)c1O [Compound 1b]	13.4	1400 s and 1461 s	–	64.5 ± 6.2	≈1	3.3 ± 0.3	≈18.4	61.1 ± 1.8	–	–	–	–	–	–
COc1ccc(/C=N/Nc2nc3ccccc3[nH]2)cc1O [Compound 1l]	16	no lag phase	–	27.6 ± 3.5	≈4.8	16.8 ± 3.4	≈8	134.7 ± 1.3	–	–	–	–	–	–
COc1ccc(/C=N/Nc2nc3ccccc3[nH]2)cc1 [Compound 1f]	17.1	807 s	–	11.2 ± 1.3	≈31.6	19.4 ± 2.2	≈18.2	355 ± 5.3	–	–	–	–	–	–
COC(=O)Nc1nc2ccc(C(=O)c3cccs3)cc2[nH]1 [nocodazole, reference compound]	52	935 s	–	–	–	–	–	–	–	–	–	–	–	–

Second part, led by results:

Initial Rate of the Exponential Phase, Signal Response [1] [a.u.s^−1 × 10^−6]	Lag Time [1]	lag time of tubulin polymerization [1]	SMILES	IC50 ([2]; MCF7, MTT, 72 h exposure, ± SD) [µM]	CSI MCF-7 (cancer selectivity index) ([2]; IC50(3T3)/IC50(MCF-7))	IC50 ([3]; MTT, 72 h exposure, ± SD) [µM]	CSI AR230 (cancer selectivity index) ([3]; IC50(3T3)/IC50(AR-230))	IC50 [4] [µM]	IC50 ([2]; MCF7, 72 h) [µM]	CSI MCF-7 (cancer selectivity index) ([2]; IC50(CCL-1)/IC50(MCF-7))	IC50 ([3]; 72 h) [µM]	CSI AR230 (cancer selectivity index) ([3]; IC50(CCL-1)/IC50(AR-230))	IC50 ([5]; Fibroblast) [µM]	IC50 [5, 6] [µM]
10.7	1000 s	–	COc1cccc(OC)c1/C=N/Nc1nc2ccccc2[nH]1 [Compound 1g]	7.9 ± 2.1	≈33	11.5 ± 1	≈22.6	261 ± 4.7	–	–	–	–	–	–
13.3	1400 s and 1407 s	–	Oc1ccc(/C=N/Nc2nc3ccccc3[nH]2)cc1O [Compound 1d]	–	–	61.8 ± 5.7	–	–	–	–	–	≈1.8	–	113 ± 9.1
8.77	1390 s	–	Oc1ccccc1/C=N/Nc1nc2ccccc2[nH]1 [Compound 1a]	18.7 ± 1.1	≈11	21.2 ± 2.3	≈9.6	204 ± 5.1	–	–	–	–	–	–
23.1	1090 s	–	COc1cc(/C=N/Nc2nc3ccccc3[nH]2)cc(OC)c1 [Compound 1h]	4.6 ± 0.7	≈72.8	5.9 ± 0.9	≈56.7	335 ± 7	–	–	–	–	–	–
167	151 s	–	CC(=O)O[C@H]1C(=O)[C@@]2(C)[C@H]([C@H](OC(=O)c3ccccc3)[C@]3(O)C[C@H](OC(=O)[C@H](O)[C@@H](NC(=O)c4ccccc4)c4ccccc4)C(C)=C1C3(C)C)[C@]1(OC(C)=O)CO[C@@H]1C[C@@H]2O [paclitaxel, reference compound]	–	–	–	–	–	–	–	–	–	–	–
16.9	1200 s	more than 20 min	COc1cccc(/C=N/Nc2nc3ccccc3[nH]2)c1O [Compound 1j]	6.4 ± 1.2	–	1.1 ± 0.2	–	–	–	> 50	–	≈ 363; also recorded: ≈363.6	–	> 400
